According to the NIST ThermoML archive (doi:10.1016/j.jct.2010.08.010):
Numbers after ± are expanded uncertainties.

Settings: Liquid, Buoyancy - hydrostatic balance with magnetic suspension - one sinker

C1CCCCC1 [cyclohexane]
Settings	mass density [kg/m3]
293.15 K, 99.46 kPa	778.632 ± 0.18
293.15 K, 1102 kPa	779.471 ± 0.18
293.15 K, 2002.4 kPa	780.22 ± 0.18
293.15 K, 4003.9 kPa	781.856 ± 0.18
293.15 K, 6003.8 kPa	783.454 ± 0.18
293.15 K, 8003.3 kPa	785.025 ± 0.18
293.15 K, 10042 kPa	786.595 ± 0.18
293.15 K, 12046 kPa	788.105 ± 0.18
293.15 K, 13919 kPa	789.495 ± 0.18
293.15 K, 15982 kPa	790.995 ± 0.18
293.15 K, 17946 kPa	792.401 ± 0.18
293.15 K, 20017 kPa	793.855 ± 0.18
313.15 K, 102.48 kPa	759.667 ± 0.18
313.15 K, 1139 kPa	760.675 ± 0.18
313.15 K, 2012.2 kPa	761.509 ± 0.18
313.15 K, 4102.4 kPa	763.47 ± 0.18
313.15 K, 5932.8 kPa	765.157 ± 0.18
313.15 K, 7910.5 kPa	766.936 ± 0.18
313.15 K, 10018 kPa	768.784 ± 0.18
313.15 K, 12069 kPa	770.545 ± 0.18
313.15 K, 13965 kPa	772.137 ± 0.18
313.15 K, 15902 kPa	773.737 ± 0.18
313.15 K, 17956 kPa	775.394 ± 0.18
313.15 K, 20142 kPa	777.123 ± 0.18
333.15 K, 1112.4 kPa	741.367 ± 0.17
333.15 K, 2043.6 kPa	742.401 ± 0.17
333.15 K, 3988 kPa	744.517 ± 0.17
333.15 K, 5966.8 kPa	746.613 ± 0.17
333.15 K, 8141.8 kPa	748.853 ± 0.17
333.15 K, 10007 kPa	750.72 ± 0.17
333.15 K, 11994 kPa	752.664 ± 0.18
333.15 K, 14093 kPa	754.666 ± 0.18
333.15 K, 15963 kPa	756.414 ± 0.18
333.15 K, 17995 kPa	758.261 ± 0.18
333.15 K, 19861 kPa	759.929 ± 0.18
353.15 K, 1109.9 kPa	721.547 ± 0.17
353.15 K, 1973.2 kPa	722.669 ± 0.17
353.15 K, 4000 kPa	725.242 ± 0.17
353.15 K, 6001.3 kPa	727.698 ± 0.17
353.15 K, 8046.5 kPa	730.125 ± 0.17
353.15 K, 10046 kPa	732.423 ± 0.17
353.15 K, 11820 kPa	734.413 ± 0.17
353.15 K, 13860 kPa	736.633 ± 0.17
353.15 K, 15940 kPa	738.835 ± 0.17
353.15 K, 18023 kPa	740.978 ± 0.17
353.15 K, 20003 kPa	742.965 ± 0.17
373.15 K, 1115.5 kPa	701.065 ± 0.16
373.15 K, 1950.1 kPa	702.346 ± 0.16
373.15 K, 4154.1 kPa	705.638 ± 0.17
373.15 K, 6126 kPa	708.455 ± 0.17
373.15 K, 8029.4 kPa	711.079 ± 0.17
373.15 K, 9951.2 kPa	713.63 ± 0.17
373.15 K, 12097 kPa	716.383 ± 0.17
373.15 K, 13877 kPa	718.592 ± 0.17
373.15 K, 16148 kPa	721.319 ± 0.17
373.15 K, 18078 kPa	723.568 ± 0.17
373.15 K, 19877 kPa	725.607 ± 0.17
393.15 K, 1162.9 kPa	679.792 ± 0.16
393.15 K, 1960.3 kPa	681.265 ± 0.16
393.15 K, 3901.4 kPa	684.723 ± 0.16
393.15 K, 5983.9 kPa	688.253 ± 0.16
393.15 K, 7986.4 kPa	691.487 ± 0.16
393.15 K, 9903.3 kPa	694.452 ± 0.16
393.15 K, 11975 kPa	697.527 ± 0.16
393.15 K, 13821 kPa	700.163 ± 0.16
393.15 K, 16029 kPa	703.195 ± 0.16
393.15 K, 18027 kPa	705.845 ± 0.17
393.15 K, 20004 kPa	708.371 ± 0.17
413.15 K, 1196.7 kPa	657.32 ± 0.15
413.15 K, 2172.6 kPa	659.527 ± 0.15
413.15 K, 4146.4 kPa	663.767 ± 0.16
413.15 K, 6122.3 kPa	667.756 ± 0.16
413.15 K, 8132.6 kPa	671.583 ± 0.16
413.15 K, 10013 kPa	674.989 ± 0.16
413.15 K, 11993 kPa	678.397 ± 0.16
413.15 K, 14004 kPa	681.703 ± 0.16
413.15 K, 16053 kPa	684.936 ± 0.16
413.15 K, 18098 kPa	688.022 ± 0.16
413.15 K, 19935 kPa	690.694 ± 0.16
433.15 K, 1086.7 kPa	632.817 ± 0.15
433.15 K, 2070.6 kPa	635.63 ± 0.15
433.15 K, 4050.3 kPa	640.931 ± 0.15
433.15 K, 6077 kPa	645.937 ± 0.15
433.15 K, 8181.7 kPa	650.742 ± 0.15
433.15 K, 10077 kPa	654.811 ± 0.15
433.15 K, 12111 kPa	658.913 ± 0.15
433.15 K, 13890 kPa	662.325 ± 0.15
433.15 K, 15959 kPa	666.096 ± 0.16
433.15 K, 18073 kPa	669.76 ± 0.16
433.15 K, 20010 kPa	672.969 ± 0.16
453.15 K, 2100.8 kPa	609.942 ± 0.14
453.15 K, 4117.3 kPa	616.844 ± 0.15
453.15 K, 6121.3 kPa	623.004 ± 0.15
453.15 K, 8117.4 kPa	628.596 ± 0.15
453.15 K, 9915.4 kPa	633.254 ± 0.15
453.15 K, 11931 kPa	638.115 ± 0.15
453.15 K, 13935 kPa	642.628 ± 0.15
453.15 K, 15959 kPa	646.918 ± 0.15
453.15 K, 18103 kPa	651.206 ± 0.15
453.15 K, 19890 kPa	654.601 ± 0.15
473.15 K, 2403.5 kPa	582.448 ± 0.14
473.15 K, 3924.9 kPa	589.431 ± 0.14
473.15 K, 6045.2 kPa	597.933 ± 0.14
473.15 K, 8093.2 kPa	605.148 ± 0.14
473.15 K, 9884.3 kPa	610.832 ± 0.14
473.15 K, 11911 kPa	616.733 ± 0.15
473.15 K, 13943 kPa	622.171 ± 0.15
473.15 K, 16018 kPa	627.319 ± 0.15
473.15 K, 18133 kPa	632.216 ± 0.15
473.15 K, 20025 kPa	636.335 ± 0.15
